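Values below derive from 48-hour exposures of cells grown in 96-well plates, with endpoints linearly interpolated between the two concentrations bracketing the appropriate inhibition level. At the GI50, growth is halved.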 Calls of active or inactive are those of the source. Cut-off read from the data, not from the text of the source: active = GI50 up to about 1.1 µM and inactive = higher.
Tests used:
Assay in all cases: NCI-60 cell line screen, 48 h
TK-10 = tested on: TK-10
K562 = tested on: K562
SF-295 = tested on: SF-295
OVCAR-5 = tested on: OVCAR-5
UACC-62 = tested on: UACC-62
OVCAR-3 = tested on: OVCAR-3
SR = tested on: SR
SK-MEL-5 = tested on: SK-MEL-5
HOP-62 = tested on: HOP-62
HCC 2998 = tested on: HCC 2998
ACHN = tested on: ACHN
NCI-H226 = tested on: NCI-H226
Malme-3M = tested on: Malme-3M
NCI/ADR-RES = tested on: NCI/ADR-RES
SK-MEL-28 = tested on: SK-MEL-28
EKVX = tested on: EKVX
HL-60 = tested on: HL-60
786-0 = tested on: 786-0
DU-145 = tested on: DU-145
HCT-15 = tested on: HCT-15

| SMILES | GI50 (TK-10) | GI50 (K562) | GI50 (SF-295) | GI50 (OVCAR-5) | GI50 (UACC-62) | GI50 (OVCAR-3) | GI50 (SR) | GI50 (SK-MEL-5) | GI50 (HOP-62) | GI50 (HCC 2998) | GI50 (ACHN) | GI50 (NCI-H226) | GI50 (Malme-3M) | GI50 (NCI/ADR-RES) | GI50 (SK-MEL-28) | GI50 (EKVX) | GI50 (HL-60) | GI50 (786-0) | GI50 (DU-145) | GI50 (HCT-15) |
| --- | --- | --- | --- | --- | --- | --- | --- | --- | --- | --- | --- | --- | --- | --- | --- | --- | --- | --- | --- | --- |
| NS(=O)(=O)c1ccc(NC(=O)Nc2cccc3ccccc23)cc1 | 31 µM (inactive) | > 100 µM (inactive) | 35.6 µM (inactive) | > 100 µM (inactive) | 23.6 µM (inactive) | 46.9 µM (inactive) | 72.3 µM (inactive) | > 100 µM (inactive) | 34.4 µM (inactive) | 27.6 µM (inactive) | 33.2 µM (inactive) | 27.2 µM (inactive) | 35.7 µM (inactive) | 46 µM (inactive) | 39.4 µM (inactive) | 28.4 µM (inactive) | > 100 µM (inactive) | 19 µM (inactive) | 23.8 µM (inactive) | 91.4 µM |
| N[C@H]1CCCC[C@@H]1N1C(=O)c2ccccc2C1(O)c1ccc(Cl)cc1 (stereo not given in full) | 12.9 µM (inactive) | 3.19 µM (inactive) | 16 µM (inactive) | 15.1 µM (inactive) | 13 µM (inactive) | 8.73 µM (inactive) | 13.9 µM (inactive) | 10.5 µM (inactive) | 14.5 µM (inactive) | 1.86 µM (inactive) | 13.7 µM (inactive) | 15.9 µM (inactive) | 14 µM (inactive) | 12.7 µM (inactive) | 3.78 µM (inactive) | 15.3 µM (inactive) | 2.41 µM (inactive) | 12.6 µM (inactive) | 13.2 µM (inactive) | 13.4 µM |
| C=CCC1(OCc2ccccc2)C(=O)C(=O)OC1C1COC(C)(C)O1 (stereo not given) | > 100 µM (inactive) | > 100 µM (inactive) | > 100 µM (inactive) | > 100 µM (inactive) | > 100 µM (inactive) | > 100 µM (inactive) | > 100 µM (inactive) | > 100 µM (inactive) | > 100 µM (inactive) | > 100 µM (inactive) | > 100 µM (inactive) | > 100 µM (inactive) | > 100 µM (inactive) | > 100 µM (inactive) | > 100 µM (inactive) | > 100 µM (inactive) | > 100 µM (inactive) | > 100 µM (inactive) | > 100 µM (inactive) | > 100 µM |
| CCOC(=O)c1sc2ncnc(N)c2c1C | 34 µM (inactive) | > 100 µM (inactive) | 79.4 µM (inactive) | 36.3 µM (inactive) | 35.3 µM (inactive) | > 100 µM (inactive) | 24.8 µM (inactive) | 36.8 µM (inactive) | 80 µM (inactive) | 40.1 µM (inactive) | 65.8 µM (inactive) | 75.5 µM (inactive) | 82.8 µM (inactive) | > 100 µM (inactive) | 45.3 µM (inactive) | 25.9 µM (inactive) | > 100 µM (inactive) | 53.8 µM (inactive) | 68.7 µM (inactive) | 73.6 µM |
| O=[N+]([O-])c1ccc(C(c2c[nH]c3ccccc23)c2c[nH]c3ccccc23)cc1 | 12.7 µM (inactive) | 6.61 µM (inactive) | 22.6 µM (inactive) | 23.6 µM (inactive) | 10.5 µM (inactive) | 1.94 µM (inactive) | 4.5 µM (inactive) | 5.97 µM (inactive) | 13.5 µM (inactive) | 13.2 µM (inactive) | 8.05 µM (inactive) | 10.7 µM (inactive) | 15.5 µM (inactive) | 11 µM (inactive) | 18.5 µM (inactive) | 19.4 µM (inactive) | 17.7 µM (inactive) | 14.3 µM (inactive) | 4.47 µM (inactive) | 11 µM |
| CCCNC1=C2CC(C)CC(OC)[C@@H](O)[C@H](C)/C=C(\C)C(OC(N)=O)C(OC)/C=C\C=C(/C)C(=O)NC(=CC1=O)C2=O (stereo not given in full) | 0.201 µM (active) | 0.141 µM (active) | 0.222 µM (active) | 0.0311 µM (active) | 0.054 µM (active) | 1.65 µM (inactive) | 0.31 µM (active) | 0.0637 µM (active) | 0.245 µM (active) | 0.264 µM (active) | 0.502 µM (active) | 0.551 µM (active) | 0.0612 µM (active) | 3.31 µM (inactive) | 0.0627 µM (active) | 3.36 µM (inactive) | 0.214 µM (active) | 0.443 µM (active) | 0.111 µM (active) | 0.321 µM |
